Measurements as given in PubChem BioAssay AID1963976 (Molecular Pharmacology Branch, DTP, NCI, 2024).

Tested on: 435261-313-R-J1-PDC tumor spheroid viability
Assay: Anticancer human tumor 435261-313-R-J1-PDC patient-derived colon adenocarcinoma cell line growth inhibition [PI3K]
Conditions: spheroids with HUVEC and MSC; for IC50: curve of first compound; for viability, T/C: stronger effect = lower value; active = viability on the fitted dose curve at most 10% of control; inactive = the rest
Description: Combinatorial screen of targeted agents with the PI3K inhibitors inavolisib, alpelisib, duvelisib, and copanlisib in multi-cell type tumor spheroids
A high-throughput screen of multi-cell type tumor spheroids was designed to identify active combinations of targeted small molecules and PI3K pathway inhibitors. Complex spheroids include a stromal component modeled by human endothelial cells (HUVEC) and fibroblasts modeled by human mesenchymal stem cells (MSCs). The concentration ranges selected for each drug and investigational agent were based upon clinically achievable concentrations if the clinical Cmax of the agent was known.
Compounds. The drugs and investigational agents: inavolisib (NSC800729), alpelisib (NSC765974), duvelisib (NSC772469), copanlisib (NSC816437), ipatasertib (NSC767898), afuresertib (NSC778305), talazoparib (NSC767125), sapanisertib (NSC764658), selumetinib (NSC741078), tovorafenib (DAY101, NSC766906), vemurafenib (NSC761431), ravoxertinib (NSC781343), sotorasib (NSC818433), MRTX1133 (NSC 836407), abemaciclib (NSC 768073), palbociclib (NSC758247), venetoclax (NSC 766270), SY5609 (NSC837396), enzalutamide (NSC755605), and darolutamide (NSC825331), were obtained from the National Cancer Institute (NCI) Developmental Therapeutics Program Chemical Repository. The FDA-approved anticancer drug set is available from the NCI Developmental Therapeutics Program. […] The stock solutions were prepared in dimethyl sulfoxide (DMSO, Sigma-Aldrich, St. Louis, MO, cat. D2650) at 800-fold the tested concentration and stored at -70 degrees C prior to their use. All drugs and investigational agents were tested over a range starting from a high concentration at or near the clinical Cmax and decreasing in half-log increments. If the clinical Cmax for an agent had not been determined, the highest concentration tested was 10 microM.
Cell Culture. All cells were maintained in an incubator at 37 degrees C and 5% CO2 with 95% humidity. The PDC lines were cultured according to standard operating procedures established by the NCI PDMR (https://pdmr.cancer.gov/sops/default.htm). All PDCs were thawed and cultured in Matrigel-coated flasks prepared with a working solution of 1X Ham's F-12 nutrient mix, without supplementation (Invitrogen, Waltham, MA, cat. 11765054), 100 U/mL penicillin-streptomycin (Invitrogen, cat. 15140122), and 2.5% Matrigel (Corning Inc., Corning, NY, cat. 354248) for the first three passages. The 354836-022-R-J1-PDC, 475296-252-R-J1-PDC, and 997726-040-R-J2-PDC lines were cultured in 6A media, which includes advanced DMEM/F-12 (Thermo Fisher Scientific, cat. 12634028), 10 mM HEPES (Thermo Fisher Scientific, cat. 15630080), 1X GlutaMAX supplement (Thermo Fisher Scientific, cat. 35050061), 0.1 mg/mL primocin (InvivoGen, San Diego, CA, cat. ant-pm-2), 10% defined fetal bovine serum, heat inactivated (HyClone Laboratories Inc., Logan, UT, cat. SH30070.03HI), 50% L-WRN conditioned media (ATCC, cat. CRL-3276), 1.25 mM N-Acetyl-L-cysteine (Sigma-Aldrich, cat. A9165), 10 mM nicotinamide (Sigma-Aldrich, cat. N0636), 1X B-27 supplement (Thermo Fisher Scientific, cat. 17504044), 1X N-2 supplement (Thermo Fisher Scientific, cat. 17502048), and 10 microM Y-27632 dihydrochloride (Tocris Bioscience, Bristol, United Kingdom, cat. 1254). The 624824-186-R-J2-PDC line was cultured in 6C/Colon 1B media, which includes all 6A media components plus 50 ng/mL human EGF recombinant protein (Thermo Fisher Scientific, cat. PHG0311). […]

[1] = second compound 0.00316 µM, first compound 0.0316 µM
[2] = second compound 0.00316 µM, first compound 0.1 µM
[3] = second compound 0.01 µM, first compound 0.0316 µM
[4] = second compound 0.01 µM, first compound 0.1 µM
[5] = second compound 0.0316 µM, first compound 0.0316 µM
[6] = second compound 0.0316 µM, first compound 0.1 µM
[7] = second compound 0.1 µM, first compound 0.0316 µM
[8] = second compound 0.1 µM, first compound 0.1 µM
[9] = second compound 0.316 µM, first compound 0.0316 µM
[10] = second compound 0.316 µM, first compound 0.1 µM
[11] = second compound 1 µM, first compound 0.0316 µM
[12] = second compound 1 µM, first compound 0.1 µM

CC(C)NCC(C(=O)N1CCN(c2ncnc3c2C(C)CC3O)CC1)c1ccc(Cl)cc1 (centres undefined) + CC(Nc1ccc2c(c1)OCCn1cc(N3C(=O)OCC3C(F)F)nc1-2)C(N)=O
inactive: viability, T/C [1] 76.3% | viability, T/C [2] 77.9% | viability, T/C (second compound 0.00316 µM, first compound 0.316 µM) 69.5% | viability, T/C (second compound 0.00316 µM, first compound 1 µM) 72.3% | viability, T/C (second compound 0.00316 µM, first compound 3.16 µM) 63.6% | viability, T/C (second compound 0.00316 µM, first compound 10 µM) 31.3% | viability, T/C [3] 88.2% | viability, T/C [4] 94.7% | viability, T/C (second compound 0.01 µM, first compound 0.316 µM) 73.6% | viability, T/C (second compound 0.01 µM, first compound 1 µM) 80.1% | viability, T/C (second compound 0.01 µM, first compound 3.16 µM) 54.7% | viability, T/C (second compound 0.01 µM, first compound 10 µM) 18.2% | viability, T/C [5] 62.3% | viability, T/C [6] 56.3% | viability, T/C (second compound 0.0316 µM, first compound 0.316 µM) 50.5% | viability, T/C (second compound 0.0316 µM, first compound 1 µM) 60.8% | viability, T/C (second compound 0.0316 µM, first compound 3.16 µM) 47.3% | viability, T/C (second compound 0.0316 µM, first compound 10 µM) 13.3% | viability, T/C [7] 48.6% | viability, T/C [8] 28.7% | viability, T/C (second compound 0.1 µM, first compound 0.316 µM) 34.8% | viability, T/C (second compound 0.1 µM, first compound 1 µM) 31.8% | viability, T/C (second compound 0.1 µM, first compound 3.16 µM) 24.7% | viability, T/C (second compound 0.1 µM, first compound 10 µM) 12.6% | viability, T/C [9] 21% | viability, T/C [10] 21.4% | viability, T/C (second compound 0.316 µM, first compound 0.316 µM) 18.4% | viability, T/C (second compound 0.316 µM, first compound 1 µM) 18.7% | viability, T/C (second compound 0.316 µM, first compound 3.16 µM) 19% | viability, T/C (second compound 0.316 µM, first compound 10 µM) 10.6% | viability, T/C [11] 18.1% | viability, T/C [12] 15.9% | viability, T/C (second compound 1 µM, first compound 0.316 µM) 13.8% | viability, T/C (second compound 1 µM, first compound 1 µM) 18.4% | viability, T/C (second compound 1 µM, first compound 3.16 µM) 17.1% | viability, T/C (second compound 1 µM, first compound 10 µM) 10.8%
2.48 µM: IC50 (second compound 0.0316 µM)
3.75 µM: IC50 (second compound 0.01 µM)
< 0.0316 µM: IC50 (second compound 0.1 µM) | IC50 (second compound 0.316 µM) | IC50 (second compound 1 µM)
5.07 µM: IC50 (second compound 0.00316 µM)

Cn1ncnc1[C@H]1c2n[nH]c(=O)c3cc(F)cc(c23)N[C@@H]1c1ccc(F)cc1 + CC(Nc1ccc2c(c1)OCCn1cc(N3C(=O)OCC3C(F)F)nc1-2)C(N)=O
0.000592 µM: IC50 (second compound 0.1 µM)
inactive: viability, T/C (second compound 0.00316 µM, first compound 0.000316 µM) 105% | viability, T/C (second compound 0.00316 µM, first compound 0.001 µM) 88.5% | viability, T/C (second compound 0.00316 µM, first compound 0.00316 µM) 102% | viability, T/C (second compound 0.00316 µM, first compound 0.01 µM) 96.3% | viability, T/C [1] 83.9% | viability, T/C [2] 69.4% | viability, T/C (second compound 0.01 µM, first compound 0.000316 µM) 74.4% | viability, T/C (second compound 0.01 µM, first compound 0.001 µM) 85.5% | viability, T/C (second compound 0.01 µM, first compound 0.00316 µM) 81.7% | viability, T/C (second compound 0.01 µM, first compound 0.01 µM) 95.8% | viability, T/C [3] 68% | viability, T/C [4] 50.2% | viability, T/C (second compound 0.0316 µM, first compound 0.000316 µM) 67.4% | viability, T/C (second compound 0.0316 µM, first compound 0.001 µM) 81.3% | viability, T/C (second compound 0.0316 µM, first compound 0.00316 µM) 92.6% | viability, T/C (second compound 0.0316 µM, first compound 0.01 µM) 86.1% | viability, T/C [5] 53.6% | viability, T/C [6] 40.4% | viability, T/C (second compound 0.1 µM, first compound 0.000316 µM) 55.6% | viability, T/C (second compound 0.1 µM, first compound 0.001 µM) 42.9% | viability, T/C (second compound 0.1 µM, first compound 0.00316 µM) 41.9% | viability, T/C (second compound 0.1 µM, first compound 0.01 µM) 39.4% | viability, T/C [7] 36.1% | viability, T/C [8] 30.7% | viability, T/C (second compound 0.316 µM, first compound 0.000316 µM) 21.6% | viability, T/C (second compound 0.316 µM, first compound 0.001 µM) 20.8% | viability, T/C (second compound 0.316 µM, first compound 0.00316 µM) 26.2% | viability, T/C (second compound 0.316 µM, first compound 0.01 µM) 19.5% | viability, T/C [9] 20.6% | viability, T/C [10] 17.1% | viability, T/C (second compound 1 µM, first compound 0.000316 µM) 18.3% | viability, T/C (second compound 1 µM, first compound 0.001 µM) 17.5% | viability, T/C (second compound 1 µM, first compound 0.00316 µM) 17% | viability, T/C (second compound 1 µM, first compound 0.01 µM) 20.7% | viability, T/C [11] 20.2% | viability, T/C [12] 12.5%
< 0.000316 µM: IC50 (second compound 0.316 µM) | IC50 (second compound 1 µM)
0.0435 µM: IC50 (second compound 0.0316 µM)
> 0.1 µM: IC50 (second compound 0.00316 µM) | IC50 (second compound 0.01 µM)
